This passage reports TGI and GI50 results from PubChem BioAssay (NCI).

Among the test systems are XF 498 CNS; LXFL 529 NSCLC; M19-MEL melanoma; DMS 114 small cell lung; SNB-78 CNS; DLD-1 colon; RXF-631 renal; HOP-18 NSCLC; MDA-N.
Holding throughout (experiment): NCI-60 cell line screen, 48 h

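A five-concentration, 48-hour dose response in 96-well plates underlies each endpoint, interpolated linearly between surrounding concentrations. The concentration for 50% growth inhibition is given as GI50. TGI: concentration producing complete growth inhibition.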

Take `CC(=O)O[C@@H]1CC(C)C2CC2C2=C(C(O)OC2O)[C@@H]1C(C)CCC=C(C)C` (some centres not stated): the TGI in the assay with XF 498 CNS came out at 49.9 µM; in the assay with LXFL 529 NSCLC, 81.9 µM; in the assay on M19-MEL melanoma, 47.5 µM; with DMS 114 small cell lung, 50.4 µM; with SNB-78 CNS, 90.2 µM; in the assay on DLD-1 colon, 73.3 µM.

Consider `COc1cc2c(cc1OC)[C@@H](C(O)c1ccccc1)NCC2` (some centres not stated), for which the TGI with XF 498 CNS, in the assay on RXF-631 renal, in the assay on LXFL 529 NSCLC, with M19-MEL melanoma, in the assay with DMS 114 small cell lung and in the assay with SNB-78 CNS was above 100 µM throughout. The molecule further had a TGI in the assay on DLD-1 colon above 100 µM.

For `Cc1cccc(C)c1NC(=O)C(=O)CC(=O)CO`, the TGI with RXF-631 renal, in the assay with LXFL 529 NSCLC, in the assay on M19-MEL melanoma, in the assay with DMS 114 small cell lung, in the assay on HOP-18 NSCLC and with SNB-78 CNS was above 100 µM throughout. The TGI in the assay with DLD-1 colon was above 100 µM.

For the molecule `C=C1C(=O)O[C@@H]2C[C@@H](C)[C@@H]3[C@@H](OC4OC(COC(C)=O)C(O)C(O)C4O)CC(=O)[C@@]3(C)C[C@H]12` (some centres not stated), the TGI in the assay on MDA-N is 3.51 µM.

In the case of `CN(C)c1ccc(/C=C2\N=C(c3ccc(N)cc3)OC2=O)cc1`, the TGI in the assay with XF 498 CNS, in the assay with RXF-631 renal, with LXFL 529 NSCLC, in the assay with M19-MEL melanoma, with DMS 114 small cell lung and in the assay with HOP-18 NSCLC was above 100 µM throughout. Also, the TGI with SNB-78 CNS and in the assay with DLD-1 colon was above 100 µM throughout.

In the case of `N#CC1(c2nc3ccccc3o2)C(=O)C(=O)N(c2ccc(Cl)c(Cl)c2)C(=O)C1=O`, the TGI with XF 498 CNS, in the assay with LXFL 529 NSCLC, in the assay on HOP-18 NSCLC, in the assay on SNB-78 CNS and in the assay on DLD-1 colon was above 100 µM each time.

As for `Cc1ccc(C2=Nc3ccccc3NC(=O)C2)cc1`, the TGI was 93.4 µM in the assay with XF 498 CNS; above 100 µM with LXFL 529 NSCLC; above 100 µM with M19-MEL melanoma; above 100 µM in the assay with DMS 114 small cell lung; above 100 µM in the assay on HOP-18 NSCLC; above 100 µM in the assay with SNB-78 CNS. For the same molecule, the TGI in the assay with DLD-1 colon is above 100 µM.

With `CC(=S)NNC(=O)c1ccncc1`, the TGI in the assay on XF 498 CNS, with LXFL 529 NSCLC, in the assay with M19-MEL melanoma, in the assay with HOP-18 NSCLC, with SNB-78 CNS and with DLD-1 colon was above 100 µM throughout.

`CNC1NC(=O)c2ccccc2N1Cc1ccc(F)cc1` (configuration not stated): the TGI in the assay with MDA-N is above 100 µM.

Molecule `COc1cc2c(OC)c(c1)CCCC1=CC(=O)C=C(CCC2)C1=O` had a TGI in the assay with MDA-N of 30.2 µM.

With `CC(C)(C)C(=O)C(c1ccc(-c2cscn2)cc1)c1ccc(-c2cscn2)cc1`, the TGI in the assay with XF 498 CNS was 80.5 µM; in the assay on RXF-631 renal, above 100 µM; in the assay on LXFL 529 NSCLC, above 100 µM; in the assay with M19-MEL melanoma it was above 100 µM; with HOP-18 NSCLC it was above 100 µM; in the assay with SNB-78 CNS, 78.5 µM. The same molecule showed a TGI with DLD-1 colon above 100 µM.

On to `COC1CC(OS(=O)(=O)c2ccc(C)cc2)C(OS(=O)(=O)c2ccc(C)cc2)C(COS(=O)(=O)c2ccc(C)cc2)O1` (configuration not stated), for which the TGI in the assay with LXFL 529 NSCLC is 18.7 µM; in the assay with M19-MEL melanoma, 20 µM; with DMS 114 small cell lung it was 15.1 µM; with HOP-18 NSCLC it was 8.36 µM; in the assay with SNB-78 CNS it was above 100 µM; in the assay on DLD-1 colon it was 22.7 µM.

On to `O=Cc1[nH]c2ccccc2c1Br`, for which the TGI in the assay with XF 498 CNS was found to be 63.7 µM; in the assay with RXF-631 renal, 44.1 µM; with LXFL 529 NSCLC, 60.6 µM; in the assay with M19-MEL melanoma, 59.7 µM; in the assay with DMS 114 small cell lung it was 44.7 µM; with HOP-18 NSCLC it was 83.4 µM. Besides, the TGI in the assay with SNB-78 CNS was 44.1 µM; in the assay with DLD-1 colon it was above 100 µM.

As to `Cc1cc2c(c(C#N)c1C)NC(=O)C(CC(=O)O)C2=O` (configuration not stated), the TGI in the assay on XF 498 CNS, with RXF-631 renal, in the assay with LXFL 529 NSCLC, in the assay on M19-MEL melanoma, with DMS 114 small cell lung and with HOP-18 NSCLC was above 100 µM in each case. Also, the TGI in the assay on SNB-78 CNS and with DLD-1 colon was above 100 µM each time.

The molecule `NC1CCC[C@@H](O)[C@H]1O` (some centres not stated) displayed a TGI with MDA-N above 100 µM.

For `c1cncc(C(Nc2cccc3cccnc23)Nc2cccc3cccnc23)c1`, the TGI with MDA-N was above 100 µM.

Turning to `O=C(Nc1nccs1)c1cc(C2=CC=CC([N+](=O)[O-])C=C2)nc(=S)[nH]1` (configuration not stated), the TGI with LXFL 529 NSCLC, in the assay on M19-MEL melanoma, in the assay with DMS 114 small cell lung, in the assay with HOP-18 NSCLC and with SNB-78 CNS was above 100 µM each time.

`NC(=O)C1=C(c2ccccc2)c2ccccc2C1=O` returned a TGI in the assay on MDA-N of 38.1 µM.

`CCOC(=O)C#Cc1ccc(C#CC(=O)OCC)cc1` came in with a TGI in the assay with MDA-N of 4.87 µM.

In the assay with MDA-N, `Cn1c(=O)c2[nH]c(COCc3nc4c([nH]3)c(=O)n(C)c(=O)n4C)nc2n(C)c1=O` showed a TGI above 100 µM.

For `Cn1c2ccc([N+](=O)[O-])cc2c(=O)c2c(O)cc(O)cc21`, the TGI in the assay on MDA-N was above 100 µM.

`CN(C)CCCn1c2c3ccccc3ccc2c2oc(=O)c3ccccc3c21`: the TGI is 9.55 µM in the assay with XF 498 CNS; 10 µM with LXFL 529 NSCLC; 8.86 µM with M19-MEL melanoma; 4.09 µM in the assay on DMS 114 small cell lung; 40.2 µM with HOP-18 NSCLC; 39 µM with SNB-78 CNS. Moreover, the TGI in the assay with DLD-1 colon worked out at 2.99 µM.

For `O=C(O)c1ccc([N+](=O)[O-])c2c(=O)c3ccccc3[nH]c12`, the TGI in the assay on RXF-631 renal, with LXFL 529 NSCLC, in the assay with M19-MEL melanoma, with DMS 114 small cell lung, in the assay with HOP-18 NSCLC and in the assay with SNB-78 CNS was above 100 µM each time. This molecule showed a TGI in the assay with DLD-1 colon above 100 µM.

Consider `CCN(CC)C(=S)N/N=C(\C)c1ccccc1O`, for which the TGI in the assay on RXF-631 renal is above 100 µM; in the assay on LXFL 529 NSCLC, above 100 µM; in the assay with M19-MEL melanoma, above 100 µM; with DMS 114 small cell lung it was above 100 µM; in the assay with HOP-18 NSCLC, 86.5 µM; in the assay on SNB-78 CNS, above 100 µM. Also, the TGI in the assay on DLD-1 colon was above 100 µM.

On to `CCCCC(=O)[O-].N.N.N.N.N.[Co+3].[O-][Cl+3]([O-])([O-])[O-]`, for which the GI50 in the assay on LXFL 529 NSCLC, in the assay with SNB-78 CNS and in the assay with DLD-1 colon was above 100 µM in each case. Besides, the TGI in the assay on LXFL 529 NSCLC, in the assay with SNB-78 CNS and in the assay on DLD-1 colon was above 100 µM throughout.

With `COC[C@H]1OC(=O)c2coc3c2[C@@]1(C)C1=C(C3=O)[C@@H]2CCC(=O)[C@@]2(C)C[C@H]1OC(C)=O`, the TGI in the assay with MDA-N was above 100 µM.

As to `O=C(c1ccc(NCN2C(=O)CCC2=O)cc1)c1ccc(NCN2C(=O)CCC2=O)cc1`, the TGI in the assay with XF 498 CNS, with RXF-631 renal, with LXFL 529 NSCLC, in the assay on M19-MEL melanoma, in the assay on SNB-78 CNS and with DLD-1 colon was above 100 µM throughout.

Consider `CNS(=O)(=O)NN(C)S(=O)(=O)c1ccc(Br)cc1`, for which the TGI in the assay on XF 498 CNS, in the assay on RXF-631 renal, in the assay on LXFL 529 NSCLC, with M19-MEL melanoma and in the assay with DMS 114 small cell lung was above 100 µM in each case.

Consider `O[C@]12CCCC[C@H]1CCC2`, for which the TGI in the assay with XF 498 CNS, in the assay with RXF-631 renal, in the assay on LXFL 529 NSCLC, in the assay with M19-MEL melanoma, with DMS 114 small cell lung and in the assay on SNB-78 CNS was above 100 µM throughout.

The molecule `CCc1oc2ccccc2c1C(=O)c1cc(Br)c(O)c(Br)c1` displayed a TGI in the assay on MDA-N above 100 µM.

Regarding `C=CCN=C1N=C(CC(=O)OCC)CS1`, the TGI in the assay with XF 498 CNS, in the assay on LXFL 529 NSCLC, in the assay on M19-MEL melanoma, in the assay with DMS 114 small cell lung, in the assay on HOP-18 NSCLC and in the assay on SNB-78 CNS was above 100 µM throughout. This molecule gave a TGI in the assay with DLD-1 colon above 100 µM.

Turning to `COC1=C(C(=O)OC(C)(C)C)[C@]2(C)C(C(=O)OC(C)(C)C)C(OC)=C(C(=O)OC(C)(C)C)[C@]2(C)C1C(=O)OC(C)(C)C` (some centres not stated), the TGI in the assay on XF 498 CNS, in the assay with LXFL 529 NSCLC, in the assay on M19-MEL melanoma, with DMS 114 small cell lung, in the assay with HOP-18 NSCLC and with SNB-78 CNS was above 100 µM each time. This molecule also came in with a TGI in the assay with DLD-1 colon above 100 µM.

Take `CCOC(=O)NC(=O)c1cn(CCCOC(=O)CCCCCCCCC(=O)OCCCn2cc(C(=O)NC(=O)OCC)c(=O)[nH]c2=O)c(=O)[nH]c1=O`: the TGI in the assay on XF 498 CNS is 72.4 µM; in the assay with LXFL 529 NSCLC, 79.8 µM; with M19-MEL melanoma it was above 100 µM; in the assay with DMS 114 small cell lung it was 39.2 µM; in the assay on HOP-18 NSCLC, 56.4 µM; in the assay with SNB-78 CNS, above 100 µM. Moreover, the TGI in the assay with DLD-1 colon came to 53.1 µM.

With `CC(=O)Oc1cccc2c1C(=O)C(Br)(Br)CCC2`, the TGI in the assay with XF 498 CNS was 24.1 µM; with RXF-631 renal, 35.5 µM; with LXFL 529 NSCLC, 18.7 µM; in the assay with M19-MEL melanoma, 24.6 µM; in the assay with DMS 114 small cell lung, 7.79 µM; in the assay on HOP-18 NSCLC, 32.2 µM. Moreover, the results for the TGI in the assay with SNB-78 CNS, with MDA-N and with DLD-1 colon were 33.8 µM, 12.8 µM and 36.2 µM, respectively.

The molecule `CN(C)CCNC(=O)c1cc([N+](=O)[O-])ccn1` registered a TGI with MDA-N of 30.7 µM.

As for `Cc1ccc2c(=O)[nH]sc2c1`, in the assay on MDA-N, the TGI worked out at 27 µM.
